pIC50: −log10 of the molar value.
Columns and labels:
[1] = target: HCV NS3/4A protease complex, BMS strain (Hepatitis C virus genotype 1a, UniProt P27958, C1454S/C1711G); assay: FRET peptide assay to monitor HCV NS3/4A proteolytic activity (BMS strain); assay type: biochemical; conditions: read-out: IC50 against the NS3/4A BMS strain in the enzyme assay
From the text: HCV NS3 protease complexes, derived from the BMS strain, H77 strain or J4L6S strain, were generated, as described below. These purified recombinant proteins were generated for use in a homogeneous assay (see below) to provide an indication of how effective compounds of the present disclosure would be in inhibiting HCV NS3 proteolytic activity.
Serum from an HCV-infected patient was obtained from Dr. T. Wright, San Francisco Hospital. […]
In order to monitor HCV NS3/4A protease activity, an NS3/4A peptide substrate was used. […] The peptide also contains a fluorescence donor, EDANS, near one end of the peptide and an acceptor, DABCYL, near the other end. The fluorescence of the peptide is quenched by […] resonance energy transfer (RET) between the donor and the acceptor, but as the NS3 protease cleaves the peptide the products are released from RET quenching and the fluorescence of the donor becomes apparent.
The peptide substrate was incubated with one of the three recombinant NS3/4A protease complexes, in the absence or presence of a compound of the present disclosure. The inhibitory effects of a compound was determined by monitoring the formation of fluorescent reaction product in real time using a Cytofluor Series 4000. […]

[2] = target: T1, human pancreatic chymotrypsin (Homo sapiens, UniProt P17538); assay: Specificity assay, chymotrypsin; assay type: biochemical
T1 construct: purchased Sigma or EMDbiosciences
T1 sequence (P17538 19-263): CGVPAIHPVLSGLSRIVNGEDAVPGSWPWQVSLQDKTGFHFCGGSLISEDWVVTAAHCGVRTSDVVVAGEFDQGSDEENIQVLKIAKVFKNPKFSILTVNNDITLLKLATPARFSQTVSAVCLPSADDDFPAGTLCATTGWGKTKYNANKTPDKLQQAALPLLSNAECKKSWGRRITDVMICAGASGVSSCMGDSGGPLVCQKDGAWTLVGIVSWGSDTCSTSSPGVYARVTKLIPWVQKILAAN
Experimental: The specificities of compounds of the present disclosure were determined against a variety of serine proteases: human neutrophil elastase (HNE), porcine pancreatic elastase (PPE) and human pancreatic chymotrypsin and one cysteine protease: human liver cathepsin B. In all cases, a 96-well plate format protocol using colorimetric p-nitroaniline (pNA) substrate or fluorometric Amino-Methyl-Coumarin (AMC) substrate, specific for each enzyme was used as described previously (PCT Patent Application No. WO 00/09543) with some modifications. All enzymes were purchased from Sigma or EMDbiosciences while the substrates were from Bachem.
Each pNA assay included a 2 h enzyme-inhibitor pre-incubation at room temperature followed by addition of substrate and hydrolysis to ˜15% conversion as measured on a Spectramax Pro microplate reader. The cathepsin B assay was initiated by adding substrate to a 10 min enzyme-inhibitor pre-incubation at room temperature, and the assay plate measured immediately using the Cytofluor Series 4000. Compound concentrations varied from 100 to 0.4 μM depending on their potency.
50 mM Tris(hydroxymethyl)aminomethane hydrochloride (Tris-HCl) pH 8, 0.5 M Sodium Sulfate (Na2SO4), 50 mM NaCl, 0.1 mM EDTA, 3% DMSO, 0.01% Tween-20 with: […]
The percentage of inhibition was calculated using the formula: [1−((UVinh−UVblank)/(UVctl−UVblank))]×100 […]

Sequence of HCV NS3/4A protease complex, BMS strain (P27958 1027-1711 C1454S/C1711G, one chain of several): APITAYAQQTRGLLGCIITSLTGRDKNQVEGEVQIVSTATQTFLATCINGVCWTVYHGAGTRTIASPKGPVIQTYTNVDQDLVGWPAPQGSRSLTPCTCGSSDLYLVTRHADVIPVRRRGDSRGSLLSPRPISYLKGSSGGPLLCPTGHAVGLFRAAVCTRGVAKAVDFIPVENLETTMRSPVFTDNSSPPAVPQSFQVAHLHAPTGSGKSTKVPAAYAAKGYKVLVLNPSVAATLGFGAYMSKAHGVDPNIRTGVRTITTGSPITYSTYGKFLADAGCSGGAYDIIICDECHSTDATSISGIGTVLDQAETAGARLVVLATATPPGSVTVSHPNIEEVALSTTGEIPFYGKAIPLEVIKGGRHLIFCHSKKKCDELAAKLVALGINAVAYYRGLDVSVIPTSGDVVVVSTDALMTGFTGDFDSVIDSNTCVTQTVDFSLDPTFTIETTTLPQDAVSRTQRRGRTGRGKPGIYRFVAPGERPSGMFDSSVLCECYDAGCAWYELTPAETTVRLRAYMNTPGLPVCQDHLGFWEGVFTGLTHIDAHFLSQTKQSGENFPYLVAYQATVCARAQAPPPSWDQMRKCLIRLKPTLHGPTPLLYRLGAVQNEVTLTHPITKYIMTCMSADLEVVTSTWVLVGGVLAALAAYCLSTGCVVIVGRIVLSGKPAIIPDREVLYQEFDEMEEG

CC(C)(C)OC(=O)N[C@H]1CN(C2CC2)CCC/C=C\C2C[C@@]2(C(=O)NS(=O)(=O)C2CC2)NC(=O)[C@@H]2C[C@@H](Oc3ccccn3)CN2C1=O (some centres unmarked) [Compound 1]
pIC50 [1]: 7.01 | pIC50 [2]: < 4.00

— patent US20080107625A1, “Inhibitors of Hepatitis C Virus” (Bristol-Myers Squibb Company, priority 2006, published 2008)
